Experimental data taken from US12084579B2, “Cyclophane-sustained high performance porphyrins” (Northwestern University, priority 2020, dated 2024).

Columns and labels:
[1] = Isothermal titration calorimetry, single injection, XCage^8+; type: binding; conditions: toward Porp-2H and Porp-Zn
Procedure: Since the high binding affinity and aggregation of the two porphyrins prevent the accurate measurement of binding constants by isothermal titration calorimetry (ITC), a single injection experiment was performed in order to determine the binding enthalpy. The Gibbs free energy of the receptor-substrate complexation was estimated directedly from the corresponding fluorescent titrations, providing a value for TAS. Compared with ExBox^4+, the binding enthalpies of XCage^8+ are in the range of 7-8 kcal mol^−1 larger, a major contributing factor to the enhanced affinity.
Isothermal titration calorimetry: Isothermal titration was performed by TA Nano Isothermal Titration Calorimeter at 25° C. A Hastelloy cell was used with an active cell volume 190 μL. The stirring speed was set at 150 rpm. The solutions of receptors and substrates were prepared in Milli-Q water and allowed to equilibrate overnight if necessary. The aggregation of porphyrins and their high affinity binding prevented the accurate determination of binding constants, we thus only evaluated the binding enthalpy by single injection method.^S17

[2] = Displacement (competitive) fluorescence titration, XCage^8+ displacing ExBox^4+; type: binding; conditions: toward Porp-2H and Porp-Zn; water
Procedure: The changes in optical properties upon porphyrin encapsulation enable a facile study of the binding events. Fluorescence titrations of Porp-2H and Porp-Zn with ExBox^4+ yielded directly their binding constants in water. Since the binding affinities for XCage^8+ with Porp-2H and Porp-Zn are too high to be determined directly, competitive titrations were performed by displacing ExBox^4+ with XCage^8+ from the complex Porp-2H(Zn)⊂ExBox^4+. The binding affinities (Table 1) between ExBox^4+ and the two porphyrins are in the order of 10^7 M^−1. […] The samples were equilibrated for 6 h prior to the fluorescence titration studies. […]
Displacement fluorescence titration experiments: The displacement of porphyrins from Porp-2H⊂ExBox^4+ or Porp-Zn⊂ExBox^4+ by XCage^8+ to form Porp-2H⊂XCage^8+ or Porp-Zn⊂XCage^8+ regenerates the fluorescence emission of porphyrin, and the turn-on fluorescence was monitored as the signals to track the formation of the porphyrin inclusion complexes with XCage^8+. […] The samples were equilibrated at room temperature for 6 h, and the fluorescence intensity of each sample was recorded. The average fluorescence intensity of the three sets samples was plotted against the concentration of XCage^8+ to generate the binding isotherm, which was fitted by a displacement binding model^S15 to calculate the binding constant Ka using Origin Lab 8.6 software^S16.

binding enthalpies larger compared with ExBox^4+ [1]: 7 to 8 kcal/mol | enhancement in the binding affinities compared with ExBox^4+ [2]: ~1000 fold
SMILES: c1cc2ccc1C[n+]1ccc(cc1)-c1cc3cc(c1)-c1cc4cc(c1)-c1cc[n+](cc1)Cc1ccc(cc1)C[n+]1ccc(cc1)-c1cc(cc(c1)-c1cc(cc(c1)-c1cc[n+](cc1)Cc1ccc(cc1)C[n+]1ccc-3cc1)-c1cc[n+](cc1)C2)-c1cc[n+](cc1)Cc1ccc(cc1)C[n+]1ccc-4cc1 [XCage^8+]
